Source: US20080194632A1, “Novel Piperidine Derivatives as Chemokine Receptor Modulators Useful for the Treatment of Respiratory Diseases” (ASTRAZENECA AB, priority 2005, published 2008)
pIC50: −log10 of the molar value.

Biological target: T1, human CCR1 (Homo sapiens, UniProt P32246)
T1 construct: expressed in transfected cells; membranes prepared
T1 sequence (P32246 1-355): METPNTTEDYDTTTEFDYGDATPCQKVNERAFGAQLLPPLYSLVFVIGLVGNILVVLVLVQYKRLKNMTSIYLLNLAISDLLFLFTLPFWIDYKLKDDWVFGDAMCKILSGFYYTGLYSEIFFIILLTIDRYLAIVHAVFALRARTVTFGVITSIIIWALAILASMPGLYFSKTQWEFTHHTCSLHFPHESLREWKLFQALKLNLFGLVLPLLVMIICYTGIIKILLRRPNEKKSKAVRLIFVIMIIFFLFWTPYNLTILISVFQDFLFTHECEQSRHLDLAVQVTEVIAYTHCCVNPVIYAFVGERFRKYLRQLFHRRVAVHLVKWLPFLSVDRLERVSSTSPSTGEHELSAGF
Assay: Human CCR1 binding assay ([125I] MIP-1α displacement)
Conditions: displacement of 33 pM [125I] MIP-1α from HEK-CCR1 membranes, pH 7.4, 1.5 hrs at room temperature
Protocol: HEK293 cells, from ECACC, stably expressing recombinant human CCR1 (HEK-CCR1) were used to prepare cell membranes containing CCR1. The membranes were stored at −70° C. The concentration of membranes of each batch was adjusted to 10% specific binding of 33 pM [^125I] MIP-1α.
100 μL of HEK-CCR1 membranes diluted in assay buffer pH 7.4 (137 mM NaCl (Merck, Cat No 1.06404), 5.7 mM Glucose (Sigma, Cat No G5400), 2.7 mM KCl (Sigma, Cat No P-9333), 0.36 mM NaH2PO4×H2O (Merck, Cat No 1.06346), 10 mM HEPES (Sigma, Cat No H3375), 0.1% (w/v) Gelatine (Sigma, Cat No G2625)) with the addition of 17500 units/L Bacitracin (Sigma, Cat No B 1025) were added to each well of the 96 well filter plate (0.45 μm opaque Millipore cat no MHVB N4550). 12 μL of compound in assay buffer, containing 10% DMSO, was added to give final compound concentrations of 1×10^−5.5-1×10^−9.5 M. 12 μl cold human recombinant MIP-1α (270-LD-050, R&D Systems, Oxford, UK), 10 nM final concentration in assay buffer supplemented with 10% DMSO, was included in certain wells (without compound) as non-specific binding control (NSB). 12 μl assay buffer with 10% DMSO was added to certain wells (without compound) to detect maximal binding (B0).
12 μL [^125I] MIP-1α, diluted in assay buffer to a final concentration in the wells of 33 pM, was added to all wells. The plates with lid were then incubated for 1.5 hrs at room temperature. After incubation the wells were emptied by vacuum filtration (MultiScreen Resist Vacuum Manifold system, Millipore) and washed once with 200 μl assay buffer. After the wash, all wells received an addition of 50 μL of scintillation fluid (OptiPhase “Supermix”, Wallac Oy, Turko, Finland). Bound [^125I] MIP-1α was measured using a Wallac Trilux 1450 MicroBeta counter. Window settings: Low 5-High 1020, 1-minute counting/well.
The following equation was used to calculate percent displacement.
Percent displacement=1−((cpm test−cpm NSB)/(cpm B0−cpm NSB)) where:
cpm test=average cpm in duplicate wells with membranes and compound and [^125I] MIP-1α cpm; NSB=average cpm in the wells with membranes and MIP-1α and [^125I] MIP-1α (non-specific binding) cpm; B0=average cpm in wells with membranes and assay buffer and [^125I] MIP-1α (maximum binding).
The molar concentration of compound producing 50% displacement (IC50) was derived using the Excel-based program XLfit (version 2.0.9) to fit data to a 4-parameter logistics function.

Compound CC(=O)Nc1ccc(O)cc1OC[C@@H](O)CNC1CCN(Cc2ccc(Cl)cc2)CC1 [Comparison 8] has a pIC50 of 8.35.

For CC(=O)Nc1cc(Cl)c(O)cc1OC[C@@H](O)CNC1CCN(Cc2ccc(Cl)cc2)CC1 [Example 8, N-{5-Chloro-2-[((2S)-3-{[1-(4-chlorobenzyl)piperidin-4-yl]amino}-2-hydroxypropyl)oxy]-4-hydroxyphenyl}acetamide di-trifluoroacetate], the pIC50 was 8.80.

With CC(=O)Nc1ccc(O)cc1OC[C@@](C)(O)CNC1CCN(Cc2ccc(Cl)cc2)CC1 [Comparison 2] the pIC50 was 8.41.

With CCC(=O)Nc1cc(Cl)c(O)cc1OC[C@@H](O)CNC1CCN(Cc2ccc(Cl)cc2)CC1 [Example 9, N-{5-Chloro-2-[((2S)-3-{[1-(4-chlorobenzyl)piperidin-4-yl]amino}-2-hydroxylpropyl)oxy]-4-hydroxyphenyl}propaneamide di-trifluoroacetate] the pIC50 was 8.57.

CCC(=O)Nc1cc(Cl)c(O)cc1OC[C@@](C)(O)CNC1CCN(Cc2ccc(Cl)cc2)CC1 [Example 1, N-{5-Chloro-2-[((2S)-3-{[1-(4-chlorobenzyl)piperidin-4-yl]amino}-2-hydroxy-2-methylpropyl)oxy]-4-hydroxyphenyl}propaneamide di-trifluoroacetate] gave a pIC50 of 9.40.

With CC(=O)Nc1cc(Cl)c(O)cc1OC[C@@](C)(O)CNC1CCN(Cc2ccc(Cl)cc2)CC1 [Example 2, N-{5-Chloro-2-[((2S)-3-{[1-(4-chlorobenzyl)piperidin-4-yl]amino}-2-hydroxy-2-methylpropyl)oxy]-4-hydroxyphenyl}acetamide di-trifluoroacetate] the pIC50 was 9.15.

Work on CCC(=O)Nc1ccc(O)cc1OC[C@@](C)(O)CNC1CCN(Cc2ccc(Cl)cc2)CC1 [Comparison 1] yielded a pIC50 of 8.15.

CCC(=O)Nc1ccc(O)cc1OC[C@@H](O)CNC1CCN(Cc2ccc(Cl)cc2)CC1 [Comparison 9] gave a pIC50 of 7.87.
